Literature values, collected in patent US20200077661A1, “METHOD AND "IDEPS" COMPOSITION FOR DESTROYING MICROORGANISMS IN A SESSILE STATE” (IDEPS GMBH, priority 2016, published 2020).

Test system: coagulase-negative staphylococci

Which “destruction of the exopolymeric matrix” value (16-128 μg/ml varnerin for 10 μg of biofilm, incubation at 37° C. for 24 hours) does the source give for varnerin here?
Its value is “partial destruction”.

And the bacterial cells die (16-128 μg/ml varnerin for 10 μg of biofilm, incubation at 37° C. for 24 hours, biofilm formed within 24 hours)?
Its bacterial cells die is “up to 30%”.

And the “bacteria in the young biofilm not eliminated” value (young biofilm (24 hours old))?
The value was “up to 70%”.
